Measurements taken from ChEMBL document CHEMBL2203171, “The use of small molecule probes to study spatially separated stimulus-induced signaling pathways” (Bioorg Med Chem Lett, 2012).
The source made the active and inactive calls.

How the values were obtained:
Assay type in all cases: cell-based
[1] = biological target: T1, Inhibitor of nuclear factor kappa-B kinase subunit beta (Mus musculus) (UniProt O88351); assay: Inhibition of IKKbeta in C57BL/6 mouse BMDM cells assessed as inhibition of TNFalpha-induced IkappaBalpha degradation at 50 uM up to 90 mins by Western blot analysis
T1 sequence (whole entry): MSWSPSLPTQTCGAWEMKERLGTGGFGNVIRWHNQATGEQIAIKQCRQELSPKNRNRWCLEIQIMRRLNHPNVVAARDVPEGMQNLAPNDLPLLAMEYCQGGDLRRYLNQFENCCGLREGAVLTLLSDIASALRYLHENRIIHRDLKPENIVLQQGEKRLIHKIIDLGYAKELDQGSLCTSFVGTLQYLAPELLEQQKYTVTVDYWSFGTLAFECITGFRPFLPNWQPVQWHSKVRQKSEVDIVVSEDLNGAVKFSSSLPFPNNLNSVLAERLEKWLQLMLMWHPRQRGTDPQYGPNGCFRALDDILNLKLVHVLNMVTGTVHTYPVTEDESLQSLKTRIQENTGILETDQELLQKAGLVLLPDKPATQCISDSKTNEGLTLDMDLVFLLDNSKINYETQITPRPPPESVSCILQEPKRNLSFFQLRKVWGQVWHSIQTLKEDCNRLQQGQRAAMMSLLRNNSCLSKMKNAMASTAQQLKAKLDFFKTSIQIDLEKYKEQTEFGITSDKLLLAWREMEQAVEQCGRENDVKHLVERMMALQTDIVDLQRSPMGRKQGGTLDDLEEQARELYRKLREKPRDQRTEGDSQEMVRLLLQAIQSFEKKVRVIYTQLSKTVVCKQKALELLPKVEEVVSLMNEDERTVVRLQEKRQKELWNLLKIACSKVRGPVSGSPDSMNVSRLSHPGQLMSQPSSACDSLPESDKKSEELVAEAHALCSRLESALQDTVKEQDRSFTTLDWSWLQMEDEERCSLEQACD

[2] = biological target: T1, Inhibitor of nuclear factor kappa-B kinase subunit beta (Mus musculus); assay: Inhibition of IKKbeta in C57BL/6 mouse BMDM cells assessed as inhibition of TNFalpha-induced IkappaBalpha phosphorylation at 50 uM up to 90 mins by Western blot analysis
[3] = biological target: T2, MAP kinase p38 (Mus musculus) (UniProt P47811+O08911+Q9WUI1+Q9Z1B7); assay: Inhibition of MAPK p38 in C57BL/6 mouse BMDM cells assessed as inhibition of LPS-induced phosphorylation at 50 uM up to 90 mins by Western blot analysis
[4] = biological target: T2, MAP kinase p38 (Mus musculus); assay: Inhibition of MAPK p38 in C57BL/6 mouse BMDM cells assessed as inhibition of TNFalpha-induced phosphorylation at 50 uM up to 90 mins by Western blot analysis
[5] = biological target: T1, Inhibitor of nuclear factor kappa-B kinase subunit beta (Mus musculus); assay: Inhibition of IKKbeta in C57BL/6 mouse BMDM cells assessed as inhibition of LPS-induced IkappaBalpha degradation at 50 uM up to 90 mins by Western blot analysis
[6] = biological target: T1, Inhibitor of nuclear factor kappa-B kinase subunit beta (Mus musculus); assay: Inhibition of IKKbeta in C57BL/6 mouse BMDM cells assessed as inhibition of LPS-induced IkappaBalpha phosphorylation at 50 uM up to 90 mins by Western blot analysis

COc1ccc(-c2ccc(C(C(=O)NC(C)(C)C)N(C(=O)CCc3ccc(O)c(O)c3)C(C)(C)C)cc2)cc1 (configuration not stated)
inactive: inhibition [1] | inhibition [2] | inhibition [3] | inhibition [4] | inhibition (active/not active) [5] | inhibition of IkappaBalpha phosphorylation (active/not active) [6]

COc1ccc(C(=O)N(Cc2ccccn2)C(C(=O)NC(C)(C)C)c2ccc(-c3ccc(OC)cc3)cc2)cc1 (configuration not stated)
inactive: inhibition [1] | inhibition [2] | inhibition [3] | inhibition [4] | inhibition (active/not active) [5] | inhibition of IkappaBalpha phosphorylation (active/not active) [6]
